# Experiments:
# Format in all cases: in vivo, human
# [1] = tested on: essential tremor (action tremor); experiment: Treatment of patients with essential / action tremor without Parkinson's disease (case reports)
# Description: A person with a 20-year history of upper extremity action tremor with a frequency of approximately 8–12 hz. The patient bad no signs or symptoms of Parkinson's disease. […] The patient was started on mirtazapine (Remeron) at a dosage of 30 mg at night.
# A person with a lifelong history of action tremor and anxiety but no signs or symptoms of Parkinson's disease was treated. […] Although the tremor always improved with a decrease in the anxiety (using SSRIs and benzodiazepines) the tremor persisted at an unsatisfactory level of severity.
# In March, 1998, the patient began medication with a dosage of 15 mg of mirtazapine (Remeron) at night, then on their own volition, increased the administration of the same dose of mirtazapine to twice a day (for a total dose of 30 mg).
# Thus, in the patient group involved in the study of Examples 1–6, a total of fifteen individuals was treated with mirtazapine, and of such population, twelve of the patients responded well to treatment with substantial tremor reduction. Of such total of fifteen patients, eight patients had essential tremor, and five of the eight responded. […] Three patients had levodopa-induced dyskinesias and all three responded.
# [2] = tested on: tremor; experiment: Patient group of Examples 1-6 treated for tremor / movement disorder (all types)
# [3] = tested on: sedation; experiment: Sedation / drowsiness side effect in treated patients
# Description: Two months later, the patient discontinued the administration of mirtazapine because they were oversleeping. Such oversleeping behavior was not believed to relate to the administration of mirtazapine, however. The patient in fact stopped and restarted the mirtazapine multiple times.
# A person with a 15 year history of Parkinson's Disease was treated. […] In August, 1997, the patient was started on mirtazapine (Remeron) at a dosage of 3 mg at night to aid in sleep. The next morning the patient's spouse telephoned excitedly to say that the spouse had only shaken for 15 minutes. This positive development continued making their “on” time more functional.
# In almost all cases, the improvement in the tremor behavior came literally overnight, that is, after an initial 30 mg dose taken in the evening before retiring. […] Patients were aware of an improvement immediately. During neurological exam, patients described the types of activities that they could perform before and after administration of mirtazapine (e.g., dealing cards, feeding oneself without spilling, being able to return to exercise classes as a consequence of the improvement experienced, etc.).
# [4] = tested on: levodopa-induced dyskinesias; experiment: Mirtazapine treatment of Parkinson's Disease patients with levodopa/dopamine-induced dyskinesias (case reports)
# Description: A person with a 15 year history of Parkinson's Disease was treated. […] In August, 1997, the patient was started on mirtazapine (Remeron) at a dosage of 3 mg at night to aid in sleep. […] Throughout the regimen of treatment, the dose of Sinemet remained stable. […] In May 1998, they were started on mirtazapine (Remeron) at a dosage of 30 mg at night. […] No other medication had been changed.
# [5] = tested on: Parkinsonian tremor (resting and action); experiment: Mirtazapine treatment of patients with Parkinsonian tremor (case reports)
# Description: A patient with mild Parkinson's Disease for 4 years experienced recurrent tremor that interfered with their ability to hold and deal cards while playing bridge. […] The patient was administered mirtazapine (Remeron®, Organon) at a dosage of 30 mg per day, taken at night for concomitant depression. […] A person with a nine-year history of Parkinson's Disease characterized by bradykinesia and marked right upper extremity resting tremor was treated. […] In May 1998, they were started on mirtazapine (Remeron) at a dosage of 30 mg at night. […] No other medication had been changed.
# [6] = Example 5, 15 mg twice a day (total 30 mg)
# [7] = Example 3: person, 30 mg at night, no other medication changed
# [8] = Example 3, mirtazapine restarted
# [9] = Example 3, several months later, mirtazapine stopped
smiles,measurement,setting,value
"CN1CCN2c3ncccc3Cc3ccccc3[C@H]2C1 (racemic) [mirtazapine, 1,2,3,4,10,14b-hexahydro-2-methyl-pyrazino [2,1-a]pyrido [2,3-c]benzazepine]",postural and kinetic tremors on physical exam,"[1]; Example 4: person, 20-year upper extremity action tremor, 30 mg at night",greatly reduced
same,patient-reported change in action tremor,"[1]; Example 5: person, action tremor and anxiety, 15 mg twice a day (total 30 mg)",improvement in the tremor especially when eating or drinking
same,clinical exam,[1]; [6],improved marginally
same,handwriting,[1]; [6],remained a problem
same,essential tremor patients who responded,"[1]; Examples 1-6, of eight patients with essential tremor",five
same,patients responding favorably with marked attenuation of tremor activity,"[2]; Example 6, of ten additional patients",seven
same,patients responding well with substantial tremor reduction,"[2]; Examples 1-6, of a total of fifteen individuals",twelve
same,onset of improvement in tremor behavior,"[2]; in almost all cases, after an initial 30 mg dose taken in the evening",overnight
same,sedation side effect,"[3]; Example 1, patient currently remaining on mirtazapine",without experiencing any sedation side effect
same,drowsiness during the day,"[3]; Example 2, 3 mg at night",never reported that they were drowsy during the day
same,sedation,[3]; patients of the above-referenced examples,sedation did not occur
same,time the patient had shaken,"[4]; Example 2: person, violent dyskinesias, 3 mg at night, reported the next morning",15 min
same,dopamine-induced dyskinesias after a new dopa agonist (ropirinole) was added,"[4]; Example 2, six months later, Sinemet dose stable",no increase in dopamine-induced dyskinesias
same,patient-reported change in dopamine-induced dyskinesias,[4]; [7],rapid improvement
same,dyskinesia upon restarting medication,[4]; [8],both movement disorders again responded
same,dyskinesia after stopping medication,[4]; [9],return of the tremor and dyskinesia
same,levodopa-induced dyskinesia patients who responded,"[4]; Examples 1-6, of three patients",three
same,patient-reported effect on resting and action tremor (holding cards),"[5]; Example 1: person, mild Parkinson's Disease, 30 mg per day at night, on Sinemet, within days of initial administration",they could hold their cards without embarrassment
same,tremor upon reinitiated administration,"[5]; Example 1, mirtazapine reinitiated, Sinemet dose unchanged",again experienced resolution of the tremors
same,tremor upon cessation of medication,"[5]; Example 1, mirtazapine stopped, Sinemet dose unchanged",the tremor (resting and action) returned
same,patient-reported change in Parkinsonian tremor,[5]; [7],rapid improvement
same,tremor upon restarting medication,[5]; [8],both movement disorders again responded
same,tremor after stopping medication,[5]; [9],return of the tremor
same,Parkinsonian resting tremor patients who responded,"[5]; Examples 1-6, of four patients (fourth not yet returned for follow-up)",three
CC(C)NCC(O)COc1cccc2ccccc12 (stereo not shown) [propranolol],response of action tremor,"[1]; Example 5 patient, before mirtazapine",seemed to respond to propranolol initially
